Measurements published in patent US4570006A, “Amidine compound, process for producing same and anti-complement agent comprising same” (Torii & Co. Ltd., priority 1981, dated 1986).
Where two headings read alike, the source gives them in different places.

Tests used:
Trypsin = biological target: T1, Trypsin (Bos taurus, UniProt P00760); test: Anti-trypsin activity (inhibition of TAME hydrolysis); type: biochemical; details: read-out: ID50, trypsin
T1 sequence (P00760 24-246): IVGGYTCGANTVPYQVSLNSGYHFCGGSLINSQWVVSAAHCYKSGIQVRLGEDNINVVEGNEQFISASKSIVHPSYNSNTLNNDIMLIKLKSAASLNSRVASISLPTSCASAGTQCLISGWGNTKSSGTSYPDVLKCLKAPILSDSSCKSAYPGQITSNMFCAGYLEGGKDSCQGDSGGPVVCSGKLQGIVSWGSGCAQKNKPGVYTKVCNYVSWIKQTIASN
Method: (§1) The anti-trypsin, anti-plasmin, anti-kallikrein and anti-thrombin activities were determined according to the method of Muramatsu et al. [M. Muramatsu, T. Onishi, S. Makino, Y. Hayashi and S. Fujii, J. of Biochem., 58, 214 (1965)]. The data summarized in Table 1 are expressed in terms of molar concentration (ID50) of the test compound which inhibits 50% of the activity of each enzyme to hydrolyze TAME (tosylarginine methyl ester). The compound No. corresponds to the compound number shown in Examples.

Plasmin = Plasmin (Homo sapiens, UniProt P00747); test: Anti-plasmin activity (inhibition of TAME hydrolysis); type: biochemical; details: read-out: ID50, plasmin
Chain of Plasmin (P00747 581-810 limits assumed, species assumed): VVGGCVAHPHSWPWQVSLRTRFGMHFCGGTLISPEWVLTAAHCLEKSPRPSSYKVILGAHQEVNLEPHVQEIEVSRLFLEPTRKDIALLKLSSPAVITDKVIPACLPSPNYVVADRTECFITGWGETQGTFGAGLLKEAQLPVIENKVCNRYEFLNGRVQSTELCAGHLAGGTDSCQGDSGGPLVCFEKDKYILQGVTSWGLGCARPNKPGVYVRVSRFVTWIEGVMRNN
Chain of Plasmin (P00747 97-580 limits assumed, species assumed): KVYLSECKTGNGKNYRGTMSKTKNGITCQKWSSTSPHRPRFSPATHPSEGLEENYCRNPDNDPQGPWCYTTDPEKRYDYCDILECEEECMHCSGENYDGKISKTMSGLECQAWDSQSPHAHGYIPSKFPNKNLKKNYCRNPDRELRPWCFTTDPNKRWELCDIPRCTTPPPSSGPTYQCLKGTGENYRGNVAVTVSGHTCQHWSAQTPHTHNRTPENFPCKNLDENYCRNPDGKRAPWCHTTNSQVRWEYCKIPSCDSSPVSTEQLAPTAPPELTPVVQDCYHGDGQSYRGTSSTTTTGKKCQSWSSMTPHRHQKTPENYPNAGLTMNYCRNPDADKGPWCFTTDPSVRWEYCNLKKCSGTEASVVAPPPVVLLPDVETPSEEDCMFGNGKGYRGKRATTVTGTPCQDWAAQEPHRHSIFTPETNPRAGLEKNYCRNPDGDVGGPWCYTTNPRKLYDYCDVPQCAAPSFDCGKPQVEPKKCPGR
Method: as §1

Kallikrein = test: Anti-kallikrein activity (inhibition of TAME hydrolysis); type: biochemical; details: read-out: ID50, kallikrein
Method: as §1

Thrombin = Thrombin (Homo sapiens, UniProt P00734); test: biochemical; details: read-out: ID50, thrombin
Clr = biological target: T2, Clr (Homo sapiens, UniProt P00736); test: Anti-Cl esterase activity, Clr (AAME hydrolysis); type: biochemical; details: hydrolysis of AAME; read-out: Anti-Cl activity, Clr (ID50)
T2 sequence (P00736 464-705 limits assumed): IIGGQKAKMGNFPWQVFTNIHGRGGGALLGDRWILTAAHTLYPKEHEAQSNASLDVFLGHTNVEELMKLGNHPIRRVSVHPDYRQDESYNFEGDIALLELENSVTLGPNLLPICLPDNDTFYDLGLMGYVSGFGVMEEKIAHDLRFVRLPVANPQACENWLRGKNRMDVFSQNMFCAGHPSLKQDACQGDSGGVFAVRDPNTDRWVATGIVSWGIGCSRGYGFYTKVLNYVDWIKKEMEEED
T2 sequence (P00736 18-463 limits assumed): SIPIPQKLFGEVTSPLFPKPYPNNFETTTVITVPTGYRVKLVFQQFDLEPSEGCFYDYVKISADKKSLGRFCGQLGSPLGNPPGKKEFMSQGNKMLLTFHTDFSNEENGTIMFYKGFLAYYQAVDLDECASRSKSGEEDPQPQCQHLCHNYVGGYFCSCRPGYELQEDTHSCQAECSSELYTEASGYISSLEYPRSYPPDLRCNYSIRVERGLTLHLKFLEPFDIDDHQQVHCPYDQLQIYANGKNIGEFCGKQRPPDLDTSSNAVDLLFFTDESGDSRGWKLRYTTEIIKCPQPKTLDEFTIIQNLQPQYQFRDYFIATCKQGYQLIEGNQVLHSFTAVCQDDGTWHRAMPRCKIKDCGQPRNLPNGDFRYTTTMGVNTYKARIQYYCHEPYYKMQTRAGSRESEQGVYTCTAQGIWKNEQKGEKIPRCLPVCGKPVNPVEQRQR
Method: The anti-Cl esterase ([…]) activity was determined according to the method of Okamura et al. [K. Okamura, M. Muramatsu and B. Fujii, Biochem. Biophys.

Cls = biological target: T3, Cls (Homo sapiens, UniProt P09871); test: Anti-Cl esterase activity, Cls (ATEE hydrolysis); type: biochemical; details: hydrolysis of ATEE; read-out: Anti-Cl activity, Cls (50% inhibition)
T3 sequence (P09871 438-688 limits assumed): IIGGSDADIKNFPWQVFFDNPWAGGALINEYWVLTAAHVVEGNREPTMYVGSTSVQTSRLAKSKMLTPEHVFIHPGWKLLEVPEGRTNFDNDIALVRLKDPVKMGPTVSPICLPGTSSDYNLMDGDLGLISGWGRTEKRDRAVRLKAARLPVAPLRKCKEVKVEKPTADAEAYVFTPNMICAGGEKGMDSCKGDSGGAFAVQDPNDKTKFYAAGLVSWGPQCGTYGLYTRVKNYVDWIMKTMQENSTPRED
T3 sequence (P09871 16-437 limits assumed): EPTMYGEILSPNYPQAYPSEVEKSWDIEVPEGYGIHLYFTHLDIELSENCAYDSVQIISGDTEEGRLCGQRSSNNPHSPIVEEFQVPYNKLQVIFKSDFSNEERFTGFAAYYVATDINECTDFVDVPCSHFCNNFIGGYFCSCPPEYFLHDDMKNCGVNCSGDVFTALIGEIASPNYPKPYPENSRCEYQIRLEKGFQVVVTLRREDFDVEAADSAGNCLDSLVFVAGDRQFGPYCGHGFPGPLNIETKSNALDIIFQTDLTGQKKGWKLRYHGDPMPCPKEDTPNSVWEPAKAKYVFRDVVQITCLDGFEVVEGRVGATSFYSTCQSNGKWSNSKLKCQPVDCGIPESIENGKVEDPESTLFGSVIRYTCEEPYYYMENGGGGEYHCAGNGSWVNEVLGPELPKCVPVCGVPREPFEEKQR
Method: The anti-Cl esterase (Clr, Cls) activity was determined according to the method of Okamura et al. [K. Okamura, M. Muramatsu and B. Fujii, Biochem. Biophys. […] The figures in Table 2 have the following meanings:
Cls: Molar concentration of the test compound which inhibits 50% of the ability of Cls to hydrolyse ATEE (acetyltyrosin ethyl ester).

complement = test: Inhibition of complement mediated hemolysis; type: cell-based

SMILES	IC50 (Trypsin) [nM]	IC50 (Plasmin) [nM]	IC50 (Kallikrein) [nM]	IC50 (Thrombin; TAME hydrolysis) [nM]	IC50 (Clr) [nM]	IC50 (Cls) [nM]	IC50 (Thrombin) [nM]	Inhibition of complement mediated hemolysis (%) (complement; compound at 1 × 10^-4)	Inhibition of complement mediated hemolysis (%) (complement; compound at 1 × 10^-5)	Inhibition of complement mediated hemolysis (%) (complement; compound at 1 × 10^-6)	Inhibition of complement mediated hemolysis (%) (complement; compound at 1 × 10^-7)
N=C(N)c1ccc(OC(=O)[C@H]2CC[C@H](CNC(=O)OCc3ccccc3)CC2)c(C(=O)c2ccccc2)c1 [Compound 20]	1000	600	600	500	> 10000	300		96.8	80.3	13.0	1.8
N=C(N)c1ccc(OC(=O)[C@H]2CC[C@H](CN)CC2)c(C(=O)c2ccccc2)c1 [Compound 21]	> 10000	> 10000	> 10000	> 10000	> 10000	4000		99.3	99.9	60.2	10.9
Cc1cc(OC(=O)c2ccccc2)ccc1C(=N)N [Compound 22, 4-amidino-3-methylphenyl benzoate]	> 10000	> 10000	> 10000	2000	6000	> 10000		22.8	0	0	0
N=C(N)c1ccc(OC(=O)c2ccccc2)c(NC(=O)c2ccccc2)c1 [Compound 30, 4-amidino-2-benzoylaminophenyl benzoate]	300	400	200	30	900	300		100	100	99.0	45.3
N=C(N)c1ccc(OC(=O)CCCc2ccccc2)c(C(=O)c2ccccc2)c1 [Compound 33]	> 10000	> 10000	> 10000	> 10000	> 10000	> 10000		94.1	20.4	0	0
COc1cc(C(=N)N)ccc1OC(=O)c1ccc(C)cc1 [Compound 35]	1000	5000	> 10000	3000	400	300		88.8	43.9	29.9	11.8
Cc1ccc(C(=O)Oc2ccc(C(=N)N)cc2[N+](=O)[O-])cc1 [Compound 37]	50	400	700	300	40	60		95.9	37.3	16.0	0

Further lines, with some results ahead:

IC50 (Trypsin) [nM]	IC50 (Plasmin) [nM]	IC50 (Kallikrein) [nM]	IC50 (Thrombin; TAME hydrolysis) [nM]	IC50 (Clr) [nM]	IC50 (Cls) [nM]	IC50 (Thrombin) [nM]	SMILES	Inhibition of complement mediated hemolysis (%) (complement; compound at 1 × 10^-4)	Inhibition of complement mediated hemolysis (%) (complement; compound at 1 × 10^-5)	Inhibition of complement mediated hemolysis (%) (complement; compound at 1 × 10^-6)	Inhibition of complement mediated hemolysis (%) (complement; compound at 1 × 10^-7)
3000	> 10000	> 10000	4000	> 10000	2000		N=C(N)c1ccc(OC(=O)c2ccccc2)c(C(=O)O)c1 [Compound 24, 4-amidino-2-carboxyphenyl benzoate]	88.2	29.1	11.0	16.7
400	400	2000	60	200	300		N=C(N)c1ccc(OC(=O)c2ccccc2)c(Cl)c1 [Compound 26, 4-amidino-2-chlorophenyl benzoate]	100.0	99.4	61.6	16.7
300	400	4000	100	500	200		N=C(N)c1ccc(OC(=O)c2ccccc2)c([N+](=O)[O-])c1 [Compound 27, 4-amidino-2-nitrophenyl benzoate]	100	100	95.5	26.2
10000	7000	> 10000	3000	> 10000	3000		N=C(N)c1ccc(OC(=O)c2ccccc2)c(S(=O)(=O)O)c1 [Compound 28, 5-amidino-2-benzoyloxybenzenesulfonic acid]	79.1	25.0	22.8	23.8
800	400	1000	30	3000	300		N=C(N)c1ccc(OC(=O)c2ccccc2)c(C(=O)c2ccccc2)c1 [Compound 29, 4-amidino-2-benzoylphenyl benzoate]	98.4	97.9	67.8	8.0
8000	3000	40000	20000	2000	3000		COc1cc(C(=N)N)ccc1OC(=O)/C=C/c1ccccc1 [Compound 31, 4-amidino-2-methoxyphenyl cinnamate]	97.2	80.5	15.8	1.8
4000	4000	> 10000		3000	3000	3000	N=C(N)c1ccc(OC(=O)C=Cc2ccccc2)c([N+](=O)[O-])c1 [Compound 34]	99.6	96.7	53.7	12.4
